pIC50: −log10 of the molar value. Where a name gives a salt, the structure may show the parent alone.
Key:
MV4-11 = assay: Cytotoxicity against human MV4-11 cells assessed as inhibition of cell growth measured after 72 hrs by Celltiter-Glo assay; assay type: functional, cell-based; details: MV4-11, 72 h
MDA-MB-468 = assay: Cytotoxicity against human MDA-MB-468 cells assessed as inhibition of cell growth measured after 72 hrs by Celltiter-Glo assay; assay type: functional, cell-based; details: MDA-MB-468, 72 h
K562 = assay: Cytotoxicity against human K562 cells assessed as inhibition of cell growth measured after 72 hrs by Celltiter-Glo assay; assay type: functional, cell-based; details: K562, 72 h
Hep 3B2 = assay: Cytotoxicity against human Hep3B cells assessed as inhibition of cell growth measured after 72 hrs by Celltiter-Glo assay; assay type: functional, cell-based
B16 = assay: Cytotoxicity against mouse B16 cells assessed as inhibition of cell growth measured after 72 hrs by Celltiter-Glo assay; assay type: functional, cell-based; details: B16, 72 h
[1] = target: T1, Receptor-type tyrosine-protein kinase FLT3 (Homo sapiens, UniProt P36888); assay: Inhibition of FLT3 (unknown origin) using MBP as substrate incubated for 40 mins in presence of ATP by ADP-Glo assay
T1 sequence (P36888 whole entry): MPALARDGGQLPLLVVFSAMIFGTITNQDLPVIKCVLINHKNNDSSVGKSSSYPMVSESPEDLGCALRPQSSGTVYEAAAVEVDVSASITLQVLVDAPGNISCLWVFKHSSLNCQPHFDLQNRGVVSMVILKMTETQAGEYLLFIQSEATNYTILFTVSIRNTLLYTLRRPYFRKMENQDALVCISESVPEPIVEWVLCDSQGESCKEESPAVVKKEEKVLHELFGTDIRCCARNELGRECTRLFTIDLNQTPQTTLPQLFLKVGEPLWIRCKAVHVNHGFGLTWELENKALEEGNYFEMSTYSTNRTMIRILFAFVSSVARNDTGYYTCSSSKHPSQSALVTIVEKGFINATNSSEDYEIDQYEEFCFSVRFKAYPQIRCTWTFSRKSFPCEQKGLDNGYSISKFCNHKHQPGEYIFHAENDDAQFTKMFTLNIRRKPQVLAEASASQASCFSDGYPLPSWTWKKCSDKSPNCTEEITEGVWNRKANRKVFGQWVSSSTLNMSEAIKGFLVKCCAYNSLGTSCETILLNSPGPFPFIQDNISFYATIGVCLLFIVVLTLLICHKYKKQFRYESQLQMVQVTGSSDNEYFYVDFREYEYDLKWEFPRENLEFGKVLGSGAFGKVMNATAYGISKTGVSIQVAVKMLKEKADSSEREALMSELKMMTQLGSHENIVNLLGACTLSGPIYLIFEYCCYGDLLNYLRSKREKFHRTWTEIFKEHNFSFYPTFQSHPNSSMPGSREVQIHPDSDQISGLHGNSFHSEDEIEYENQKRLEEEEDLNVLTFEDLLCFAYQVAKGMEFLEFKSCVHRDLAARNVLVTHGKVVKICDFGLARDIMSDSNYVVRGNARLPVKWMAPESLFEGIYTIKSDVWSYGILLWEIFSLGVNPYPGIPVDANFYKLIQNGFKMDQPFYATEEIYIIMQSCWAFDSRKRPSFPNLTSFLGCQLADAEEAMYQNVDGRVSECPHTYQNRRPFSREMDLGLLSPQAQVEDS

Row | Structure (SMILES) | pIC50 (MV4-11) | also measured
1 | CCC(=O)[C@@H](C)[C@H](O)[C@H](C)C[C@@H](C)[C@H]1OC(=O)C[C@@]2(O)CC=C(C)[C@H](O2)/C(C)=C/CCC[C@@H](O[C@H]2C[C@@H](OC(N)=O)[C@H](O)[C@@H](C)O2)/C=C/[C@H](C)C[C@H]1C | 4.22 | –
2 | COc1cccc2c1C(=O)c1c(O)c3c(c(O)c1C2=O)C[C@@](O)(C(=O)CO)C[C@@H]3O[C@H]1C[C@H](N)[C@H](O)[C@H](C)O1 [DOXORUBICIN HYDROCHLORIDE] | 6.85 | –
3 | CCC(=O)[C@@H](C)[C@@H](O)[C@H](C)C[C@@H](C)[C@H]1OC(=O)C[C@@]2(OC)CC=C(C)[C@H](O2)/C(C)=C/CCC[C@@H](O[C@H]2C[C@@H](OC(N)=O)[C@H](O)[C@@H](C)O2)/C=C/[C@H](C)C[C@H]1C | 5.39 | –
4 | CCC(=O)[C@@H](C)[C@@H](O)[C@H](C)C[C@@H](C)[C@H]1OC(=O)C[C@@]2(O)CC=C(C)[C@H](O2)/C(C)=C/CCC[C@@H](O[C@H]2C[C@@H](OC(N)=O)[C@H](O)[C@@H](C)O2)/C=C/[C@H](C)C[C@H]1C | 7.05 | pIC50 (MDA-MB-468): 5.08; pIC50 (K562): 5.24; pIC50 (Hep 3B2): 4.82; pIC50 (B16): 4.92; pIC50 [1]: 4.19
5 | CCC(=O)[C@@H](C)[C@@H](O)[C@H](C)C[C@@H](C)[C@H]1OC(=O)C[C@@]2(O)CC[C@H](C)[C@H](O2)/C(C)=C/CCC[C@@H](O[C@H]2C[C@@H](OC(N)=O)[C@H](O)[C@@H](C)O2)/C=C/[C@H](C)C[C@H]1C | 6.03 | –
